Test results reported in US6905841B2, “Enzymatic substrates for detecting Pseudomonas aeruginas” (Biomerieux S.A., priority 1999, dated 2005).
Like-named read-outs stand apart in the source and are kept apart here.

What was measured:
β-alanine aminopeptidase [1] = settings: Stenotrophomonas maltophilia; 2 strains tested; read after 22 to 24 hours
β-alanine aminopeptidase [2] = settings: Serratia marcescens; 3 strains tested; read after 22 to 24 hours
β-alanine aminopeptidase [3] = settings: Enterobacter cloacae; 2 strains tested; read after 22 to 24 hours
β-alanine aminopeptidase [4] = settings: Ralstonia pickettii; 1 strain tested; read after 22 to 24 hours
β-alanine aminopeptidase [5] = settings: Pseudomonas aeruginosa; 13 strains tested; read after 22 to 24 hours
β-alanine aminopeptidase [6] = settings: Achromobacter xylosoxydans; 2 strains tested; read after 22 to 24 hours
β-alanine aminopeptidase [7] = settings: Aeromonas hydrophila; 2 strains tested; read after 22 to 24 hours
β-alanine aminopeptidase [8] = settings: Pseudomonas mendocina; 1 strain tested; read after 22 to 24 hours
β-alanine aminopeptidase [9] = settings: Escherichia coli; 2 strains tested; read after 22 to 24 hours
β-alanine aminopeptidase [10] = settings: Enterobacter intermedius; 1 strain tested; read after 22 to 24 hours
β-alanine aminopeptidase [11] = settings: Streptococcus agalactiae; 1 strain tested; read after 22 to 24 hours
β-alanine aminopeptidase [12] = settings: Enterobacter aerogenes; 2 strains tested; read after 22 to 24 hours
β-alanine aminopeptidase [13] = settings: Proteus mirabilis; 2 strains tested; read after 22 to 24 hours
β-alanine aminopeptidase [14] = settings: Chryseobacterium meningosepticum; 2 strains tested; read after 22 to 24 hours
β-alanine aminopeptidase [15] = test: APIZYM-type test strips with β-alanyl-β-naphthylamide; assay type: cell-based; settings: Pseudomonas mendocina; five strains
β-alanine aminopeptidase [16] = test: as above; assay type: cell-based; settings: Salmonella gallinarum; 3 strains
β-alanine aminopeptidase [17] = test: as above; assay type: cell-based; settings: Klebsiella ozaenae; five strains
β-alanine aminopeptidase [18] = test: as above; assay type: cell-based; settings: Pasteurella haemolytica; five strains
β-alanine aminopeptidase [19] = test: as above; assay type: cell-based; settings: Salmonella choleraesuis; five strains
β-alanine aminopeptidase [20] = test: as above; assay type: cell-based; settings: Chryseobacterium balustinum; 1 strain
β-alanine aminopeptidase [21] = test: as above; assay type: cell-based; settings: Brevundimonas vesicularis; five strains
β-alanine aminopeptidase [22] = test: as above; assay type: cell-based; settings: Pseudomonas stutzeri; five strains
β-alanine aminopeptidase [23] = test: as above; assay type: cell-based; settings: Moraxella non liquefaciens; 13 strains
β-alanine aminopeptidase [24] = test: as above; assay type: cell-based; settings: Vibrio alginolyticus; five strains
β-alanine aminopeptidase [25] = test: as above; assay type: cell-based; settings: Salmonella spp.; five strains
β-alanine aminopeptidase [26] = test: as above; assay type: cell-based; settings: Oligella ureolytica; 2 strains
β-alanine aminopeptidase [27] = test: as above; assay type: cell-based; settings: Klebsiella pneumoniae, spp. pneumoniae; five strains
β-alanine aminopeptidase [28] = test: as above; assay type: cell-based; settings: Actinobacillus spp.; five strains
β-alanine aminopeptidase [29] = test: as above; assay type: cell-based; settings: Bordetella bronchiseptica; five strains
β-alanine aminopeptidase [30] = test: as above; assay type: cell-based; settings: Plesiomonas shigelloïdes; five strains
β-alanine aminopeptidase [31] = test: as above; assay type: cell-based; settings: Chryseobacterium meningosepticum; five strains
β-alanine aminopeptidase [32] = test: as above; assay type: cell-based; settings: Weeksella virosa; 4 strains
β-alanine aminopeptidase [33] = test: as above; assay type: cell-based; settings: Vibrio parahaemolyticus; 4 strains
β-alanine aminopeptidase [34] = test: as above; assay type: cell-based; settings: Klebsiella rhinoscleromatis; 3 strains
β-alanine aminopeptidase [35] = test: as above; assay type: cell-based; settings: Pasteurella pneumotropica; 4 strains
β-alanine aminopeptidase [36] = test: as above; assay type: cell-based; settings: Enterobacter sakazakii; five strains

NCCC(=O)c1c(N)cc(Cl)c(O)c1Cl
3: Number positive results (β-alanine aminopeptidase [2])
2: Number of negative results (β-alanine aminopeptidase [1]) | Number of negative results (β-alanine aminopeptidase [3]) | Number of negative results (β-alanine aminopeptidase [6]) | Number of negative results (β-alanine aminopeptidase [7]) | Number of negative results (β-alanine aminopeptidase [9]) | Number of negative results (β-alanine aminopeptidase [12]) | Number of negative results (β-alanine aminopeptidase [13]) | Number of negative results (β-alanine aminopeptidase [14])
13: Number positive results (β-alanine aminopeptidase [5])
1: Number of negative results (β-alanine aminopeptidase [4]) | Number positive results (β-alanine aminopeptidase [8]) | Number of negative results (β-alanine aminopeptidase [10]) | Number of negative results (β-alanine aminopeptidase [11])
0: Number positive results (β-alanine aminopeptidase [1]) | Number of negative results (β-alanine aminopeptidase [2]) | Number positive results (β-alanine aminopeptidase [3]) | Number positive results (β-alanine aminopeptidase [4]) | Number of negative results (β-alanine aminopeptidase [5]) | Number positive results (β-alanine aminopeptidase [6]) | Number positive results (β-alanine aminopeptidase [7]) | Number of negative results (β-alanine aminopeptidase [8]) | Number positive results (β-alanine aminopeptidase [9]) | Number positive results (β-alanine aminopeptidase [10]) | Number positive results (β-alanine aminopeptidase [11]) | Number positive results (β-alanine aminopeptidase [12]) | Number positive results (β-alanine aminopeptidase [13]) | Number positive results (β-alanine aminopeptidase [14])

β-alanyl-β-naphthylamide
positive: β-alanine aminopeptidase activity, result (β-alanine aminopeptidase [15])
negative: β-alanine aminopeptidase activity, result (β-alanine aminopeptidase [16]) | β-alanine aminopeptidase activity, result (β-alanine aminopeptidase [17]) | β-alanine aminopeptidase activity, result (β-alanine aminopeptidase [18]) | β-alanine aminopeptidase activity, result (β-alanine aminopeptidase [19]) | β-alanine aminopeptidase activity, result (β-alanine aminopeptidase [20]) | β-alanine aminopeptidase activity, result (β-alanine aminopeptidase [21]) | β-alanine aminopeptidase activity, result (β-alanine aminopeptidase [22]) | β-alanine aminopeptidase activity, result (β-alanine aminopeptidase [23]) | β-alanine aminopeptidase activity, result (β-alanine aminopeptidase [24]) | β-alanine aminopeptidase activity, result (β-alanine aminopeptidase [25]) | β-alanine aminopeptidase activity, result (β-alanine aminopeptidase [26]) | β-alanine aminopeptidase activity, result (β-alanine aminopeptidase [27]) | β-alanine aminopeptidase activity, result (β-alanine aminopeptidase [28]) | β-alanine aminopeptidase activity, result (β-alanine aminopeptidase [29]) | β-alanine aminopeptidase activity, result (β-alanine aminopeptidase [30]) | β-alanine aminopeptidase activity, result (β-alanine aminopeptidase [31]) | β-alanine aminopeptidase activity, result (β-alanine aminopeptidase [32]) | β-alanine aminopeptidase activity, result (β-alanine aminopeptidase [33]) | β-alanine aminopeptidase activity, result (β-alanine aminopeptidase [34]) | β-alanine aminopeptidase activity, result (β-alanine aminopeptidase [35]) | β-alanine aminopeptidase activity, result (β-alanine aminopeptidase [36])
